Source: the NIST ThermoML archive (doi:10.1016/j.fluid.2018.04.016)
Numbers after ± are expanded uncertainties.

Test: refractive index (Na D-line) (dimensionless)
Settings: 293.15 K; 101.33 kPa; Liquid; Standard Abbe refractometry

| SMILES | refractive index |
| --- | --- |
| CO [methanol] | 1.3293 ± 0.002 |
| CC(=O)OC(C)C [1-methylethyl ethanoate] | 1.3779 ± 0.002 |
| O=Cc1ccco1 [2-furaldehyde] | 1.5264 ± 0.002 |
| Cc1ccccc1 [toluene] | 1.4969 ± 0.002 |

More lines, now with the values ahead:

| refractive index | SMILES |
| --- | --- |
| 1.4262 ± 0.0023 | CC(=O)CO [acetol] |
| 1.3644 ± 0.002 | CCC=O [propanal] |
| 1.5441 ± 0.002 | COc1ccccc1O [2-methoxyphenol] |

Same assay, conditions: 314.15 K; 101.33 kPa; Liquid; Standard Abbe refractometry

| refractive index | SMILES |
| --- | --- |
| 1.5405 ± 0.002 | Oc1ccccc1 [phenol] |
